According to EP4273147A1, “SUBSTITUTED SPIROLACTAMS, SALTS THEREOF AND THEIR USE AS HERBICIDALLY ACTIVE SUBSTANCES” (Bayer Aktiengesellschaft, priority 2022, dated 2023):

How the values were obtained:
LOLRI [1] = test: Herbicidal pre-emergence action (Table A3); assay type: in vivo, Lolium rigidum; conditions: visual grading after ca. 3 weeks
How it was run: (§1)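 Two-species sowings per pot, mono- plus dicotyledonous weeds; soil type sandy loam, seed covered after sowing.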

BRSNW [2] = test: Post-emergence effects on crop plants (Table F5); assay type: in vivo, Brassica napus; conditions: application rate 320 g/ha, crop plant BRSNW
Source text: (§2) 2 to 3 weeks after sowing, the test plants were sprayed in the single-leaf stage.

ORYZA [3] = test: Post-emergence effects on crop plants (Table F3); assay type: in vivo, Oryza sativa; conditions: application rate 320 g/ha, crop plant ORYZA
Source text: as §2

KCHSC = test: Herbicidal pre-emergence action (Table A10); assay type: in vivo, Kochia scoparia; conditions: visual grading after ca. 3 weeks
Source text: (§3) Seeds of mono- and dicotyledonous weed plants were sown in plastic pots (double sowings with one species of mono- and one species of dicotyledonous weed plants per pot), in sandy loam, and covered with soil.

GLXMA [4] = test: Post-emergence effects on crop plants (Table F4); assay type: in vivo, Glycine max; conditions: crop plant GLXMA
Source text: as §2

TRZAS [5] = test: Post-emergence effects on crop plants (Table F2); assay type: in vivo, Triticum aestivum; conditions: application rate 320 g/ha, crop plant TRZAS
Source text: as §2

MATIN [6] = test: Herbicidal pre-emergence action (Table A4); assay type: in vivo, Matricaria inodora; conditions: application rate 1280 g/ha; visual grading after ca. 3 weeks
How it was run: as §1

BRSNW [7] = test: Pre-emergence effects on crop plants (Table D5); assay type: in vivo, Brassica napus; conditions: crop plant, visual grading after ca. 3 weeks
ZEAMX [8] = test: Post-emergence effects on crop plants (Table F1); assay type: in vivo, Zea mays; conditions: application rate 320 g/ha, crop plant ZEAMX
Source text: as §2

ECHCG [9] = test: Herbicidal pre-emergence action (Table A2); assay type: in vivo, Echinochloa crus-galli; conditions: visual grading after ca. 3 weeks
How it was run: as §1

STEME = test: Herbicidal pre-emergence action (Table A6); assay type: in vivo, Stellaria media; conditions: visual grading after ca. 3 weeks
How it was run: as §1

ECHCG [10] = test: Herbicidal pre-emergence action, section C (Table C6); assay type: in vivo, Echinochloa crus-galli; conditions: application rate 320 g/ha; visual grading after ca. 3 weeks
Source text: (§5) Seeds of mono- and dicotyledonous weed plants and crop plants were sown, in plastic or organic planting pots, in sandy loam and covered with soil. The compounds according to the invention, formulated in the form of wettable powders (WP) or as emulsifiable concentrates (EC), were applied to the surface of the covering soil as aqueous suspension or emulsion, with the addition of 0.5% of an additive, at an application rate of 600 1 of water/ha (converted). Following treatment, the pots were placed in a greenhouse and kept under optimum growth conditions for the test plants.

POAAN [11] = test: Herbicidal pre-emergence action (Table A7); assay type: in vivo, Poa annua; conditions: visual grading after ca. 3 weeks
How it was run: as §1

ALOMY [12] = test: Herbicidal pre-emergence action, section C (Table C2); assay type: in vivo, Alopecurus myosuroides; conditions: application rate 320 g/ha; visual grading after ca. 3 weeks
Source text: as §5

GLXMA [13] = test: Pre-emergence effects on crop plants (Table D4); assay type: in vivo, Glycine max; conditions: crop plant, visual grading after ca. 3 weeks
SETVI [14] = test: Herbicidal pre-emergence action (Table A5); assay type: in vivo, Setaria viridis; conditions: visual grading after ca. 3 weeks
How it was run: as §1

SETVI [15] = test: Herbicidal pre-emergence action, section C (Table C10); assay type: in vivo, Setaria viridis; conditions: visual grading after ca. 3 weeks
TRZAS [16] = test: Pre-emergence effects on crop plants (Table D2); assay type: in vivo, Triticum aestivum; conditions: crop plant, visual grading after ca. 3 weeks
POAAN [17] = test: Herbicidal post-emergence action (Table B7); assay type: in vivo, Poa annua
How it was run: (§4)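 Visual rating against untreated plants (0% = as control, 100% = dead) made roughly 3 weeks after application. Weed species were grown in sandy loam pots under greenhouse conditions and sprayed at the one-leaf stage, 2–3 weeks post-sowing.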

MATIN [18] = test: Herbicidal post-emergence action (Table B6); assay type: in vivo, Matricaria inodora; conditions: rated visually after about 3 weeks
Protocol: Seeds of mono- and dicotyledonous weed plants were placed in plastic pots in sandy loam soil (doubly sown with in each case one species of mono- or dicotyledonous weed plants per pot), covered with soil and cultivated in a greenhouse under controlled growth conditions. 2 to 3 weeks after sowing, the test plants were treated at the one-leaf stage. […] After the test plants had been kept in the greenhouse under optimum growth conditions for about 3 weeks, the activity of the preparations was rated visually in comparison to untreated controls. For example, 100% activity = the plants have died, 0% activity = like control plants.

ECHCG [19] = test: Herbicidal post-emergence action (Table B3); assay type: in vivo, Echinochloa crus-galli; conditions: application rate 1280 g/ha; rated visually after about 3 weeks
How it was run: as §4

ABUTH = test: Herbicidal pre-emergence action (Table A1); assay type: in vivo, Abutilon theophrasti; conditions: application rate 1280 g/ha; visual grading after ca. 3 weeks vs untreated controls (100% = plants have died off, 0% = as control plants)
Source text: as §3

DIGSA [20] = test: Herbicidal pre-emergence action (Table A12); assay type: in vivo, Digitaria sanguinalis; conditions: visual grading after ca. 3 weeks
How it was run: as §1

DIGSA [21] = test: Herbicidal pre-emergence action, section C (Table C5); assay type: in vivo, Digitaria sanguinalis; conditions: visual grading after ca. 3 weeks
ECHCG [22] = test: Herbicidal post-emergence action, section E (Table E5); assay type: in vivo, Echinochloa crus-galli; conditions: application rate 320 g/ha; assessed visually after ca. 3 weeks
Source text: as §2

VERPE [23] = test: Herbicidal pre-emergence action, section C (Table C11); assay type: in vivo, Veronica persica; conditions: application rate 80 g/ha; visual grading after ca. 3 weeks
ZEAMX [24] = test: Pre-emergence effects on crop plants (Table D1); assay type: in vivo, Zea mays; conditions: crop plant, visual grading after ca. 3 weeks
ORYZA [25] = test: Pre-emergence effects on crop plants (Table D3); conditions: crop plant; application rate 80 g/ha; visual grading after ca. 3 weeks
VIOTR = test: Herbicidal pre-emergence action, section C (Table C12); assay type: in vivo, Viola tricolor; conditions: application rate 320 g/ha; visual grading after ca. 3 weeks
LOLRI [26] = test: Herbicidal pre-emergence action, section C (Table C7); assay type: in vivo, Lolium rigidum; conditions: application rate 320 g/ha; visual grading after ca. 3 weeks
Source text: as §5

VERPE [27] = test: Herbicidal pre-emergence action (Table A11); assay type: in vivo, Veronica persica; conditions: application rate 1280 g/ha; visual grading after ca. 3 weeks
Source text: as §3

ALOMY [28] = test: Herbicidal pre-emergence action (Table A9); assay type: in vivo, Alopecurus myosuroides; conditions: application rate 1280 g/ha; visual grading after ca. 3 weeks
Source text: as §3

| Compound | pre-emergence activity against LOLRI (LOLRI [1]; application rate 320 g/ha) [%] | post-emergence activity against BRSNW (BRSNW [2]) [%] | post-emergence activity against ORYZA (ORYZA [3]) [%] | post-emergence activity against TRZAS (TRZAS [5]) [%] | pre-emergence activity against MATIN (MATIN [6]) [%] | post-emergence activity against ZEAMX (ZEAMX [8]) [%] | pre-emergence activity against STEME (STEME; application rate 1280 g/ha) [%] | pre-emergence activity against POAAN (POAAN [11]; application rate 1280 g/ha) [%] | pre-emergence activity against ALOMY (ALOMY [12]) [%] | pre-emergence activity against SETVI (SETVI [14]; application rate 1280 g/ha) [%] | pre-emergence activity against ECHCG (ECHCG [9]; application rate 1280 g/ha) [%] | pre-emergence activity against STEME (STEME; application rate 320 g/ha) [%] | pre-emergence activity against POAAN (POAAN [11]; application rate 320 g/ha) [%] | pre-emergence activity against LOLRI (LOLRI [1]; application rate 1280 g/ha) [%] | pre-emergence activity against SETVI (SETVI [14]; application rate 320 g/ha) [%] | other results |
| --- | --- | --- | --- | --- | --- | --- | --- | --- | --- | --- | --- | --- | --- | --- | --- | --- |
| O=C1N(Cc2ccsc2)CCCC12CCCN(Cc1cccc(F)c1F)C2=O (racemic) [I-072] | 100 | 0 | 0 | 0 | 90 | 0 | 90 | 90 | 80 | 90 |  |  |  |  |  | pre-emergence activity against KCHSC (KCHSC; application rate 320 g/ha): 90%; post-emergence activity against GLXMA (GLXMA [4]; application rate 320 g/ha): 0%; pre-emergence activity against BRSNW (BRSNW [7]; application rate 80 g/ha): 20%; pre-emergence activity against ECHCG (ECHCG [9]; application rate 320 g/ha): 100%; pre-emergence activity against ECHCG (ECHCG [10]): 100%; pre-emergence activity against GLXMA (GLXMA [13]; application rate 80 g/ha): 0%; pre-emergence activity against SETVI (SETVI [15]; application rate 80 g/ha): 100%; pre-emergence activity against TRZAS (TRZAS [16]; application rate 80 g/ha): 10% |
| O=C1N(Cc2ccccc2Cl)CCCC12CCCN(Cc1ccccc1Cl)C2=O (racemic) [I-030] |  |  |  |  |  |  |  | 90 |  | 100 |  |  |  |  |  | post-emergence activity against POAAN (POAAN [17]; application rate 320 g/ha): 90%; post-emergence activity against MATIN (MATIN [18]; application rate 320 g/ha): 90%; pre-emergence activity against ECHCG (ECHCG [9]; application rate 320 g/ha): 90% |
| O=C1N(Cc2ccccc2Cl)CCCC12CCN(Cc1c(F)cccc1F)C2=O (racemic) [I-076] | 100 |  |  |  | 90 |  |  |  |  | 100 | 100 | 90 | 100 |  |  | post-emergence activity against ECHCG (ECHCG [19]): 90%; pre-emergence activity against ABUTH (ABUTH): 90%; pre-emergence activity against DIGSA (DIGSA [20]; application rate 320 g/ha): 90% |
| O=C1N(Cc2ccccc2)CCC12CCCN(Cc1ccccc1F)C2=O (racemic) [I-093] |  |  |  |  | 90 |  | 90 |  |  |  | 100 |  | 100 | 100 | 100 | pre-emergence activity against KCHSC (KCHSC; application rate 1280 g/ha): 90%; post-emergence activity against POAAN (POAAN [17]; application rate 320 g/ha): 90%; pre-emergence activity against ABUTH (ABUTH): 90%; pre-emergence activity against DIGSA (DIGSA [20]; application rate 1280 g/ha): 100% |
| Cc1ccc(F)c(CN2CCCC3(CCCN(Cc4c(F)ccc(C)c4F)C3=O)C2=O)c1F (racemic) [I-029] |  |  |  |  |  |  | 90 |  |  | 100 | 100 |  | 90 | 100 |  | post-emergence activity against ECHCG (ECHCG [19]): 100%; post-emergence activity against POAAN (POAAN [17]; application rate 1280 g/ha): 90%; post-emergence activity against MATIN (MATIN [18]; application rate 1280 g/ha): 100% |
| O=C1N(Cc2ccc(F)cc2F)CCCC12CCCN(Cc1ccc(F)cc1F)C2=O (racemic) [I-021] | 100 | 0 | 0 | 0 |  | 10 |  |  | 100 |  | 100 | 90 | 90 |  | 100 | pre-emergence activity against DIGSA (DIGSA [21]; application rate 80 g/ha): 90%; post-emergence activity against GLXMA (GLXMA [4]; application rate 320 g/ha): 10%; pre-emergence activity against BRSNW (BRSNW [7]; application rate 320 g/ha): 20%; post-emergence activity against ECHCG (ECHCG [22]): 80%; pre-emergence activity against VERPE (VERPE [23]): 100%; pre-emergence activity against ZEAMX (ZEAMX [24]; application rate 80 g/ha): 0%; pre-emergence activity against ECHCG (ECHCG [10]): 100%; pre-emergence activity against ORYZA (ORYZA [25]): 10%; pre-emergence activity against VIOTR (VIOTR): 80%; pre-emergence activity against GLXMA (GLXMA [13]; application rate 320 g/ha): 10%; pre-emergence activity against SETVI (SETVI [15]; application rate 320 g/ha): 100%; pre-emergence activity against TRZAS (TRZAS [16]; application rate 80 g/ha): 0%; pre-emergence activity against LOLRI (LOLRI [26]): 100% |
| CC(c1c(F)cccc1F)N1CCCC2(CCCN(C(C)c3c(F)cccc3F)C2=O)C1=O (stereo not shown) [I-074] |  | 0 | 0 | 0 |  | 0 |  | 100 | 80 |  | 90 | 90 |  | 90 | 90 | pre-emergence activity against DIGSA (DIGSA [21]; application rate 320 g/ha): 100%; post-emergence activity against GLXMA (GLXMA [4]; application rate 80 g/ha): 0%; pre-emergence activity against BRSNW (BRSNW [7]; application rate 80 g/ha): 0%; pre-emergence activity against ZEAMX (ZEAMX [24]; application rate 320 g/ha): 0%; pre-emergence activity against VERPE (VERPE [27]): 90%; pre-emergence activity against VIOTR (VIOTR): 90%; pre-emergence activity against GLXMA (GLXMA [13]; application rate 320 g/ha): 0%; pre-emergence activity against SETVI (SETVI [15]; application rate 320 g/ha): 90%; pre-emergence activity against TRZAS (TRZAS [16]; application rate 320 g/ha): 20%; pre-emergence activity against ALOMY (ALOMY [28]): 90%; pre-emergence activity against DIGSA (DIGSA [20]; application rate 1280 g/ha): 90% |
